Calls of active or inactive are those of the source. The calls are words filed in the database; no cut-off is given here.
Columns and labels:
[1] = Unbound fraction in guinea pig plasma at 3 mg/kg administered as iv infusion; format: ADME, organism-based, Cavia porcellus; conditions: in vivo
[2] = tested on: Rattus norvegicus; assay: Antihypertensive activity in rat spontaneous hypertensive model assessed as change in systolic blood pressure at 3 mg/kg, po qd measured after 3 days; format: functional
[3] = Clearance in Wistar Han rat at 1 mg/kg, iv or 2 mg/kg, po; conditions: in vivo
[4] = Half life in Wistar Han rat at 1 mg/kg, iv or 2 mg/kg, po; conditions: in vivo
[5] = target: T1, ATP-sensitive inward rectifier potassium channel 1 (Homo sapiens, UniProt P48048); assay: Inhibition of human ROMK expressed in CHO cells at -70 mV holding potential after 6 mins by whole cell patch clamp Qpatch method; format: cell-based
T1 sequence (P48048 whole entry): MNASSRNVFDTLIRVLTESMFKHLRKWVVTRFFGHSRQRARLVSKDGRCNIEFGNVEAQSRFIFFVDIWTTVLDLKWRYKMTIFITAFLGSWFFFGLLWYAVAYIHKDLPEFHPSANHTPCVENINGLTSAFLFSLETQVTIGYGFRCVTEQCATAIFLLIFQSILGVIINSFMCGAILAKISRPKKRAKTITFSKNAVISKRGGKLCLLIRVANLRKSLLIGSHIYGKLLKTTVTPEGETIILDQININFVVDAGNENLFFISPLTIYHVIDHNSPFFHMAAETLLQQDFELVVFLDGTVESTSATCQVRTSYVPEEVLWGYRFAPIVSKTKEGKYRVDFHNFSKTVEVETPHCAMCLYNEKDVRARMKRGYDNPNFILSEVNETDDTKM

[6] = target: T2, Inward rectifier potassium channel 2 (Homo sapiens, UniProt P63252); assay: Inhibition of Kir2.1 (unknown origin)
T2 sequence (P63252 whole entry): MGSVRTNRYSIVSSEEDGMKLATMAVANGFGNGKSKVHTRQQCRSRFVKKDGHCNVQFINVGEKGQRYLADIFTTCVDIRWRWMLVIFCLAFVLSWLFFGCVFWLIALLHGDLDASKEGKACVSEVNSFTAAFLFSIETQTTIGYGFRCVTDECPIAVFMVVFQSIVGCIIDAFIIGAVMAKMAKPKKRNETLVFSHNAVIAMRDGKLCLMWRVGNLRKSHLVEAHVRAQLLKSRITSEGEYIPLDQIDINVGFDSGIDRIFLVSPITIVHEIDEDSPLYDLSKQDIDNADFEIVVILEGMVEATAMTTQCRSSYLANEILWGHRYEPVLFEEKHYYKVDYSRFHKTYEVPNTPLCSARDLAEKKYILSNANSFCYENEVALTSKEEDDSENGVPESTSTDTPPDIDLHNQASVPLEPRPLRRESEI

[7] = target: Voltage-dependent L-type calcium channel subunit alpha-1C (Homo sapiens, UniProt Q13936); assay: Inhibition of Cav1.2 (unknown origin)
[8] = target: Cytochrome P450 3A4 (Homo sapiens, UniProt P08684); assay: Inhibition of CYP3A4 (unknown origin); format: ADME
[9] = target: Cytochrome P450 2D6 (Homo sapiens, UniProt P10635); assay: Inhibition of CYP2D6 (unknown origin); format: ADME
[10] = target: T3, Cytochrome P450 2C8 (Homo sapiens, UniProt P10632); assay: Inhibition of CYP2C8 (unknown origin); format: ADME
T3 sequence (P10632 whole entry): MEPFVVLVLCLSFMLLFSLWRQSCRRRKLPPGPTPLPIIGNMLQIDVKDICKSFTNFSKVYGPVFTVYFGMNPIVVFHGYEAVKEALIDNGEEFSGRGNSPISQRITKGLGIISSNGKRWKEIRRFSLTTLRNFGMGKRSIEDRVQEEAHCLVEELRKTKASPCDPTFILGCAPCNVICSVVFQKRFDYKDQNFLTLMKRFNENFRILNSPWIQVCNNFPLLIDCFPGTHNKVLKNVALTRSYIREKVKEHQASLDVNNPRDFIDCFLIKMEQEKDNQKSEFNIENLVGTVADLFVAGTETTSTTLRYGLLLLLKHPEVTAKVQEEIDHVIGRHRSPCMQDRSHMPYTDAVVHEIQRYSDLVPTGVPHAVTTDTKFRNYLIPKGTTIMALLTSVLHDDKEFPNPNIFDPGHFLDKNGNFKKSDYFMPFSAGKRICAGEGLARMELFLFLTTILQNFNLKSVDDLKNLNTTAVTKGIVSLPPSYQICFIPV

[11] = target: T4, Nuclear receptor subfamily 1 group I member 2 (Homo sapiens, UniProt O75469); assay: Activity at PXR (unknown origin) assessed as CYP induction
T4 sequence (O75469 whole entry): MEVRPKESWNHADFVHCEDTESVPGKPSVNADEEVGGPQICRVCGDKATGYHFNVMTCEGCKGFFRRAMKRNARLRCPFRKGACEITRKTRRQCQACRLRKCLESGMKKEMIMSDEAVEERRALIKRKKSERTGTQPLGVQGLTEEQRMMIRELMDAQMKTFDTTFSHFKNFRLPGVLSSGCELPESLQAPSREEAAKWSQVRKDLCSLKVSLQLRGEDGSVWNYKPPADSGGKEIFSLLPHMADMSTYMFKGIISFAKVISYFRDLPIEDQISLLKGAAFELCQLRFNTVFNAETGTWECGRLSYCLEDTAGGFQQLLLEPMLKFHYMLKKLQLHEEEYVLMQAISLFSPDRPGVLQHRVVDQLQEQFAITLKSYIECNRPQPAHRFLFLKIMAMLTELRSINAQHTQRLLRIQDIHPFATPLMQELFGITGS

[12] = target: Sodium-dependent serotonin transporter (Homo sapiens, UniProt P31645); assay: Inhibition of human SERT
[13] = Fraction unbound in dog plasma; format: ADME, cell-free, Canis lupus familiaris
[14] = Fraction unbound in human plasma; format: ADME, cell-free
[15] = tested on: Cavia porcellus; assay: Cardiotoxicity in anesthetized cardiovascular guinea pig model assessed as prolongation of QTc interval at 3 mg/kg administered as iv infusion relative to control; format: toxicity, organism-based; conditions: in vivo
[16] = tested on: Cavia porcellus; assay: Cardiotoxicity in anesthetized cardiovascular guinea pig model assessed as prolongation of QTc interval at 10 mg/kg administered as iv infusion relative to control; format: toxicity, organism-based; conditions: in vivo
[17] = tested on: Cavia porcellus; assay: Cardiotoxicity in anesthetized cardiovascular guinea pig model assessed as prolongation of QTc interval administered as iv infusion; format: toxicity, organism-based; conditions: in vivo
[18] = Unbound fraction in guinea pig plasma at 10 mg/kg administered as iv infusion; format: ADME, organism-based, Cavia porcellus; conditions: in vivo
[19] = species: Homo sapiens; assay: Unbound Cmax in human; format: ADME
[20] = tested on: Rattus norvegicus; assay: Antihypertensive activity in rat spontaneous hypertensive model assessed as induction of kaliuresis at 3 mg/kg, po qd measured after 3 days; format: functional, organism-based
[21] = Clearance in Beagle dog at 1 mg/kg, iv; format: ADME, organism-based, Canis lupus familiaris; conditions: in vivo
[22] = Volume of distribution at steady state in Beagle dog at 1 mg/kg, iv; format: ADME, organism-based, Canis lupus familiaris; conditions: in vivo, read-out: Vdss
[23] = Half life in Beagle dog at 1 mg/kg, iv; format: ADME, organism-based, Canis lupus familiaris; conditions: in vivo
[24] = tested on: Rattus norvegicus; assay: Antihypertensive activity in rat spontaneous hypertensive model assessed as induction of diuresis at 3 mg/kg, po qd measured after 3 days; format: functional, organism-based
[25] = species: Rattus norvegicus; conditions: in vivo, po, 2 mg/kg
[26] = in vivo; conditions: Wistar Han, rat, po, 2 mg/kg

Chain of Sodium-dependent serotonin transporter (P31645 whole entry): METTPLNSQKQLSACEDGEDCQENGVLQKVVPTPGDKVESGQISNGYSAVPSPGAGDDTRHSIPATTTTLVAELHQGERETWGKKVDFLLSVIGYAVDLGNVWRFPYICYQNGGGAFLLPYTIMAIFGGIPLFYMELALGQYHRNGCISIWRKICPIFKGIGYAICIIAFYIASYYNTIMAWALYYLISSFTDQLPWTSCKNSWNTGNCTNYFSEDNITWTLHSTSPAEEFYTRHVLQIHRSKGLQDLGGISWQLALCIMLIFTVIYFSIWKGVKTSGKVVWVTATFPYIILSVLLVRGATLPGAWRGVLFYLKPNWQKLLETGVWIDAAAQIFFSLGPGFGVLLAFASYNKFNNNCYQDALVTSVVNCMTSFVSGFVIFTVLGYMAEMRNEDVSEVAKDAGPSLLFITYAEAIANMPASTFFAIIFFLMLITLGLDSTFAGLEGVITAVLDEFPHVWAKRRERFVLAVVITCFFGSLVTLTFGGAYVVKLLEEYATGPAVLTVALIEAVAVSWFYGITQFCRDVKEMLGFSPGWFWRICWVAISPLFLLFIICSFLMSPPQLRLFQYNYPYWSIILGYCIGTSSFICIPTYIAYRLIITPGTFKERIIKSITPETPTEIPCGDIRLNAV
Chain of Cytochrome P450 3A4 (P08684 whole entry): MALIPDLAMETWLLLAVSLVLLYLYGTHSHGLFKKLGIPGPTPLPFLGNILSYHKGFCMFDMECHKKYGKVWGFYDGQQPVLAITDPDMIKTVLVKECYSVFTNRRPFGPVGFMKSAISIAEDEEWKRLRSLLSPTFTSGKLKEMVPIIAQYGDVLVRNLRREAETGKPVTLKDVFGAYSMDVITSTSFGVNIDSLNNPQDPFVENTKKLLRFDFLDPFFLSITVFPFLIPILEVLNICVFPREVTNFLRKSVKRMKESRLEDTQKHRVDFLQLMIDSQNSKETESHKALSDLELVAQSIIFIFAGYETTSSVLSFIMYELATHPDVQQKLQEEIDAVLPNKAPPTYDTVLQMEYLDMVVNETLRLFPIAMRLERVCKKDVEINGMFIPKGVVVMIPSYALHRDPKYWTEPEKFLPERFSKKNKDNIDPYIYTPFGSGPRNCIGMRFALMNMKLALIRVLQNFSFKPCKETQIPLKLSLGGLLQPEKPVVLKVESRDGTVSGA
Chain of Voltage-dependent L-type calcium channel subunit alpha-1C (Q13936 whole entry): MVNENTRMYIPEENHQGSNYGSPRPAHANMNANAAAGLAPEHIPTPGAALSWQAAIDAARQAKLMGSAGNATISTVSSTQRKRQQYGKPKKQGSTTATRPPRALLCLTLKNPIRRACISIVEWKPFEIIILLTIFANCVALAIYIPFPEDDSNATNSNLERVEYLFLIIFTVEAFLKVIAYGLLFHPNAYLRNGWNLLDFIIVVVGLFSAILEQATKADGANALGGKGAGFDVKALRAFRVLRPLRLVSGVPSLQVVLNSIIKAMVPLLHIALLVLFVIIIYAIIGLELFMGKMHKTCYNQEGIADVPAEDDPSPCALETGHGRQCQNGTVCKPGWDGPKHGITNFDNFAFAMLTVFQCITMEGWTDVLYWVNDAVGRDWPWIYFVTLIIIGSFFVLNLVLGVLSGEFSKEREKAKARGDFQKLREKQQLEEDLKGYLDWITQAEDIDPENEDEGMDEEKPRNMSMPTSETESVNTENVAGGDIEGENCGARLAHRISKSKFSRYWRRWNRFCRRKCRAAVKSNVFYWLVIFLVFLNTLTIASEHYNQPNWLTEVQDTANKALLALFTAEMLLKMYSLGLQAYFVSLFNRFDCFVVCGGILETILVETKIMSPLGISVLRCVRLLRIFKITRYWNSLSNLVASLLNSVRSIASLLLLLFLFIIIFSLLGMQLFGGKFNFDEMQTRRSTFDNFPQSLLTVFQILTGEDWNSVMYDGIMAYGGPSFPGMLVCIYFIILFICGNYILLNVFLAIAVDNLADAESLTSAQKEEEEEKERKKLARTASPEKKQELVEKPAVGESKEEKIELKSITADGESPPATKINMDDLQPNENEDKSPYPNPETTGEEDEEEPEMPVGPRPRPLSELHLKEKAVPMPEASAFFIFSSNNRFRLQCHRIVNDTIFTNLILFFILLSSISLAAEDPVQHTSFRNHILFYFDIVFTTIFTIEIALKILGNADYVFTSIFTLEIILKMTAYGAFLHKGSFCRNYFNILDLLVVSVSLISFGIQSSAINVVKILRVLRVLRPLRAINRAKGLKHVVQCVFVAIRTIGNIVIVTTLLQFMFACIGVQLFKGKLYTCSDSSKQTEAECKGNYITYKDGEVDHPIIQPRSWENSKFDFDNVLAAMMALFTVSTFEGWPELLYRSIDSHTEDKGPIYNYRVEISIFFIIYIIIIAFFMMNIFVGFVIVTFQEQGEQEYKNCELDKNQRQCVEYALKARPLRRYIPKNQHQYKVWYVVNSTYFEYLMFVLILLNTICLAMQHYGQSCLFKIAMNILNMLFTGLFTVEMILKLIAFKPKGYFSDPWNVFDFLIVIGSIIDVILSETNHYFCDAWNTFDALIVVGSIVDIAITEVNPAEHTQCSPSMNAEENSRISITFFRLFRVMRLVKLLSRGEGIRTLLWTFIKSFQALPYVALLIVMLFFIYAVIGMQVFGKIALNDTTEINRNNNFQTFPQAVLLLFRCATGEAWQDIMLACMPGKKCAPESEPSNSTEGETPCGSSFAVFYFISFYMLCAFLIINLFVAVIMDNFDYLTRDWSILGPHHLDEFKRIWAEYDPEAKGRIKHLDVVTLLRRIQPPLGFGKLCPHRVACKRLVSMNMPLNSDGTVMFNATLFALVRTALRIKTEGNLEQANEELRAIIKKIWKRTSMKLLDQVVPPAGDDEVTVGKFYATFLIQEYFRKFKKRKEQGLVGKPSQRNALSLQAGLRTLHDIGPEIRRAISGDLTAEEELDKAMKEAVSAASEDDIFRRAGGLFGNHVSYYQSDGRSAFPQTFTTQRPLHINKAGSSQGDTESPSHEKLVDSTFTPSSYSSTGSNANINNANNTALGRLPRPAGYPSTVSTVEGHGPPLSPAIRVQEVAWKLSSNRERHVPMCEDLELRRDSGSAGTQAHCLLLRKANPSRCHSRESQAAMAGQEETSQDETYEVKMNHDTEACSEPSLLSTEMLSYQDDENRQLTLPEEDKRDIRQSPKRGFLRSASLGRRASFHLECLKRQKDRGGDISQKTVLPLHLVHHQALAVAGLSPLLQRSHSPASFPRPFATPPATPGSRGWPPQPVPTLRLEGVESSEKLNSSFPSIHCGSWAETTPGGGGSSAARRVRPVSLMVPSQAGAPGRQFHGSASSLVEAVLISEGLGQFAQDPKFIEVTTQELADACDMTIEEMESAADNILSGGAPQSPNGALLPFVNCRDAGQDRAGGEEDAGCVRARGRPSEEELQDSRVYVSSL
Chain of Cytochrome P450 2D6 (P10635 whole entry): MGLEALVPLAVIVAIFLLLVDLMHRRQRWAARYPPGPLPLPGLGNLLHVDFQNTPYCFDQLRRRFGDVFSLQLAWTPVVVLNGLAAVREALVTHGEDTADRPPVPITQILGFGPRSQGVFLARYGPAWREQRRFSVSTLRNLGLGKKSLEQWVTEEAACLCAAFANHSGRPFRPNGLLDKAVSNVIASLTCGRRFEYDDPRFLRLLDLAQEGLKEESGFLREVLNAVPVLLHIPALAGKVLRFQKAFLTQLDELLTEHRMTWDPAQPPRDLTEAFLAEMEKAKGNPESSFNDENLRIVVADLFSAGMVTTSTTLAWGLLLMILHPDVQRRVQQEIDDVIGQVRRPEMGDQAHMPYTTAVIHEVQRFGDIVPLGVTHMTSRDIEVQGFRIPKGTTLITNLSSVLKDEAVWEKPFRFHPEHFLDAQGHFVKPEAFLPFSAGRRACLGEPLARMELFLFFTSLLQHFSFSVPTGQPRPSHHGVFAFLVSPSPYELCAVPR

Q: Which “Cp(f)” value [1] does the source give for Cc1c([C@@H](O)CN2CCC3(CC2)CCN(c2ccc(=O)n(C)n2)C3=O)ccc2c1COC2=O here?
A: 5.3 µM

Q: What about the Activity [2] of the same compound?
A: -14 mmHg

Q: And the clearance [3]?
A: 25 mL/min/kg

Q: What about the half-life [4] of the same compound?
A: 2.8 h

Q: And the IC50 [5]?
A: 0.017 µM

Q: What about the IC50 [6] of the same compound?
A: > 100 µM

Q: And the IC50 [7]?
A: > 30 µM

Q: What about the IC50 [8] of the same compound?
A: > 50 µM

Q: What about the IC50 [9] of the same compound?
A: > 50 µM

Q: What about the IC50 [10] of the same compound?
A: > 50 µM

Q: What about the IC50 [11] of the same compound?
A: > 30 µM

Q: What about the IC50 [12] of the same compound?
A: 10.4 µM

Q: And the fraction unbound [13]?
A: 0.405

Q: What about the fraction unbound [14] of the same compound?
A: 0.456

Q: What about the Activity [15] of the same compound?
A: 9%

Q: What about the Activity [16] of the same compound?
A: 16%

Q: What about the Activity [17] of the same compound?
A: Dose-dependent effect

Q: What about the “Cp(f)” value [18] of the same compound?
A: 22.5 µM

Q: What about the fCmax [19] of the same compound?
A: 0.12 µM

Q: What about the Activity [20] of the same compound?
A: inactive

Q: What about the clearance [21] of the same compound?
A: 18.3 mL/min/kg

Q: What about the Vd [22] of the same compound?
A: 5 L/kg

Q: What about the half-life [23] of the same compound?
A: 5.8 h

Q: What about the Activity [24] of the same compound?
A: Active

Q: And the AUC/dose [25]?
A: 1.2 µM·kg·h/mg

Q: And the bioavailability [26]?
A: 78%
